Values belong to the compound of their own block, whether it stands above or below them.
Key:
[1] = tested on: rats with streptozocin-induced diabetes; conditions: 40 mg/kg for 30 days; cited from earlier work
[2] = tested on: semi-professional cyclists; conditions: single dose of 500 mg; cited from earlier work
[3] = tested on: subjects with type II diabetes mellitus; conditions: 500 mg daily for 6 weeks; cited from earlier work
[4] = cited from earlier work
[5] = in vivo; cited from earlier work
[6] = tested on: incidence of diabetes; conditions: pharmacological treatment vs lifestyle changes (58%); cited from earlier work
[7] = tested on: adult individuals with dysglycaemia (baseline blood glucose between 100 and 125 mg/dL); test: Clinical evaluation of the efficacy of the composition: double-blind, placebo-controlled pilot clinical study, 12 weeks; assay type: in vivo, humans
Method: A single-centre, […], double-blind, placebo-controlled, pilot clinical study was conducted to evaluate the efficacy of the composition object of the present invention on humans in reducing insulin resistance-related risk factors. The study was carried out in accordance with the guidelines of the Helsinki Declaration and approved by the Ethics Committee of the Hospital. 100 adult individuals of both sexes were enrolled (47 women and 53 men, aged 20 to 75 years) with dysglycaemia (baseline blood glucose between 100 and 125 mg/dL on at least two consecutive occasions), in primary prevention for cardiovascular disease.
Exclusion criteria: dysglycaemia secondary to pathological or iatrogenic causes, systemic diseases associated with dysglycaemia, uncompensated dysthyroidism, treatment with drugs potentially interacting with glucose metabolism (for example corticosteroids, atypical antipsychotics).
The subjects enrolled were randomized into 5 groups, each consisting of 20 individuals: • Group A: 1 tablet of active (COMP) twice daily • Group B: 1 placebo tablet twice daily • Group C: 1 tablet of lemon extract 250 mg twice daily • Group D: 1 tablet of blood orange extract 100 mg twice daily • Group E: 1 tablet of chromium 100 mcg twice daily
All the enrolled subjects were subjected, 14 days prior to enrolment (T-14), to a pre-enrolment visit with blood tests to assess meeting the inclusion criteria. The individuals who met the TO inclusion criteria underwent a randomization visit at which the respective treatment was assigned and blood tests were performed in relation to the reference parameters.
The study lasted 12 weeks.
At the end of treatment (T12), the subjects were subjected to an end-of-study visit and blood tests.
The parameters investigated in the study are: Body mass index, systolic and diastolic blood pressure, glycated haemoglobin (HbAlc) fasting plasma glucose (FPG), fasting insulinemia (FPI), HOMA-index, triglycerides, gammaGT, creatinine phosphokinase (CPK).
The treatment called “active” or “COMPOSITION (COMP)” consists of a 570 mg tablet consisting of 250 mg lemon extract, 100 mg blood orange extract, 100 mcg chromium (as chromium picolinate), in addition to excipients such as calcium phosphate, magnesium stearate, silicon dioxide, hydroxypropyl cellulose, mono- and di-glycerides of fatty acids, microcrystalline cellulose, yellow iron oxide as a dye, coating agents. The treatment called “placebo” consists of a tablet equal in shape, weight, colour size and flavour to the active tablet but containing “inert” material for the desired effect and consists of: microcrystalline cellulose, magnesium stearate, silicon dioxide, calcium phosphate, chlorophylline dye, yellow iron oxide dye, coating agents.
The treatments related to groups C, D and E consist of one tablet equal in appearance to the tablets of groups A and B but consisting of the single active ingredient, as described above in addition to excipients.
The treatment tablets were packaged in anonymous white bottles, showing only the batch number consisting of an alphanumeric code and the expiration date. Neither the investigator nor the study subjects knew the contents of the bottles. The bottles of each treatment were placed in cardboard boxes containing a letter in a sealed envelope with reference to the batch number and content, to be opened only in case of need, as in cases of serious adverse events. After randomization, each study participant was given the bottle with 60 tablets for the specific treatment of the group to which they belonged.
All the subjects were instructed to take one tablet in the morning and one in the evening for 12 weeks.

[8] = 12-Week follow-up, 1 tablet twice daily

Compound: COc1ccc([C@@H]2CC(=O)c3c(O)cc(O[C@@H]4O[C@H](CO[C@@H]5O[C@@H](C)[C@H](O)[C@@H](O)[C@H]5O)[C@@H](O)[C@H](O)[C@H]4O)cc3O2)cc1O [hesperidin, 3′,5,7-trihydroxy-4′-methoxy-flavanone-7-rhamnoglucoside]
- fasting glycaemia, insulinemia and glycated haemoglobin [1]: reduced fasting glycaemia, insulinemia and glycated haemoglobin
- physical performance and oxidative stress [2]: improved physical performance and modulated oxidative stress
- inflammation and blood pressure [3]: reduced inflammation and blood pressure
- water solubility [4]: poor water solubility
- bioavailability [5]: low bioavailability

Compound: CN(C)C(=N)N=C(N)N [metformin]
- reduction in the incidence of diabetes [6]: 31%

- CPK [7, 8]: 133 ± 22 U/L
- Gamma-GT [7, 8]: 27 ± 6 U/L
- CPK ([7]; Baseline): 134 ± 25 U/L
- Gamma-GT ([7]; Baseline): 24 ± 9 U/L
Compound: chromium picolinate
- BMI [7, 8]: 26.2 ± 1.0 kg/m2
- DBP [7, 8]: 84 ± 4 mmHg
- FPG [7, 8]: 112 ± 4 mg/dL
- FPI [7, 8]: 20.9 ± 1.1 μU/ml
- HbA1c [7, 8]: 6.4 ± 0.1%
- SBP [7, 8]: 130 ± 7 mmHg
- TG [7, 8]: 152 ± 10 mg/dL
- HOMA-IR ([7]; 12-Week follow-up, 1 tablet twice daily, HOMA-IR=(FPG*FPI)/405): 5.7 ± 1.8
- BMI ([7]; Baseline): 26.2 ± 1.0 kg/m2
- DBP ([7]; Baseline): 85 ± 6 mmHg
- FPG ([7]; Baseline): 117 ± 5 mg/dL
- FPI ([7]; Baseline): 22.9 ± 1.0 μU/ml
- HbA1c ([7]; Baseline): 6.4 ± 0.3%
- SBP ([7]; Baseline): 131 ± 5 mmHg
- TG ([7]; Baseline): 159 ± 12 mg/dL
- HOMA-IR ([7]; Baseline, HOMA-IR=(FPG*FPI)/405): 6.6 ± 1.2
- Observed efficacy rate (%), Reduction of FPG (−) ([7]; Chromium alone 100 mcg, Group E of example 7, 12 weeks): −4.2%
- reductions in HbAlc, FPG, FPI, HOMA-index, triglycerides (statistical significance) ([7]; after 12 weeks of treatment, with respect to baseline and placebo): did not show statistically significant reductions
- reduction of fasting insulinemia (FPI) ([7]; after 12 weeks vs baseline): 4%
- reduction of fasting plasma glucose (FPG) ([7]; after 12 weeks vs baseline): 4.2%
- reduction of glycated haemoglobin (HbAlc) ([7]; after 12 weeks vs baseline): did not achieve reductions
- reduction of HOMA index ([7]; after 12 weeks vs baseline, HOMA-IR=(FPG*FPI)/405): 13%

Reference: patent publication US20250114424A1, “PLANT EXTRACT-BASED COMPOSITION AND ITS USE FOR TREATING GLUCOSE METABOLISM DISORDERS” (ESSERRE PHARMA SRL, priority 2021, published 2025)
